Measurements published in patent US10517889B2, “Modulators of SMAD7 expression” (Ionis Pharmaceuticals, Inc., priority 2017, dated 2019).
Strand notation (5' to 3'): a small letter for the sugar, then the base; units joined by * are phosphorothioate-linked, units joined directly phosphodiester-linked; [ ] holds rarer units or linkages, { } end groups; capitals alone tell only the bases. e = 2'-O-(2-methoxyethyl) (MOE); [5mC] = 5-methylcytosine; d = 2'-deoxy (DNA)

Tested on: human SMAD7 mRNA
Experiment: Antisense inhibition of human SMAD7 mRNA expression in Hep3B cells by 5-10-5 MOE gapmers, single concentration, electroporation, RT-PCR (Example 1, Study 1 and 2)
Type: cell-based
How it was run: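 Hep3B cells (20,000/well) electroporated with 5-10-5 MOE gapmer at 5,000 nM or 15,000 nM for approximately 24 h. SMAD7 mRNA quantified by real-time PCR with primer probe set RTS5062 and normalized to RIBOGREEN total RNA. Values are percent inhibition relative to untreated controls.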

[1] = Study 2, electroporation with 15,000 nM antisense oligonucleotide, 5-10-5 MOE gapmers targeting SEQ ID NO: 1 and 2
[2] = electroporation, 15,000 nM antisense oligonucleotide (Study 2), 5-10-5 MOE gapmers targeting SEQ ID NO: 1 and 2
[3] = electroporation, 5,000 nM, approximately 24 hours, relative to untreated control cells, gapmers targeting SEQ ID NO: 1 and 2
[4] = electroporation with 15,000 nM antisense oligonucleotide (Study 2), 5-10-5 MOE gapmers targeting SEQ ID NO: 1 and 2
[5] = electroporation, 15,000 nM, approximately 24 hours, relative to untreated control cells, gapmers targeting SEQ ID NO: 1 and 2

Row | Substance | % Inhibition [1] | % inhibition of SMAD7 mRNA expression [2] | further results
1 | 771924 (antisense eT*e[5mC]*eG*e[5mC]*eT*dG*dA*dT*dA*dG*dT*dT*dA*dA*d[5mC]*e[5mC]*eT*e[5mC]*eT*eG) [compound 771924] | 9% |  | 
2 | 771754 (antisense e[5mC]*e[5mC]*e[5mC]*eT*e[5mC]*dA*dG*dG*dT*dA*d[5mC]*dT*d[5mC]*dT*dG*e[5mC]*eA*e[5mC]*eA*eG) [compound 771754] |  | 45% | 
3 | 771373 (antisense eG*eA*eA*eA*eG*dA*d[5mC]*dA*dA*dA*d[5mC]*d[5mC]*dA*d[5mC]*dA*e[5mC]*eA*eT*eT*e[5mC]) [compound 771373] |  | 32% | 
4 | 771428 (eT*eG*eG*e[5mC]*eA*d[5mC]*d[5mC]*dT*d[5mC]*dG*d[5mC]*dA*d[5mC]*d[5mC]*dG*e[5mC]*e[5mC]*eT*eT*eG; antisense) [compound 771428] | 47% |  | % inhibition of SMAD7 mRNA expression [3]: 0%
5 | 771544 (antisense eA*eA*eA*eA*e[5mC]*d[5mC]*d[5mC]*d[5mC]*d[5mC]*dA*dA*d[5mC]*dA*dA*dT*eT*e[5mC]*eT*eT*eT) [compound 771544] |  | 0% | % Inhibition of SMAD7 mRNA [4]: 16%
6 | 771712 (antisense eA*eT*eT*e[5mC]*eT*dT*dT*dT*dA*dG*d[5mC]*d[5mC]*d[5mC]*dA*dA*e[5mC]*eT*eG*eT*eT) [compound 771712] |  | 3% | % Inhibition of SMAD7 mRNA [4]: 27%
7 | 771534 (antisense eA*eA*e[5mC]*eA*eG*dA*dA*d[5mC]*dA*d[5mC]*dA*dA*dA*d[5mC]*dG*eA*eG*eG*eA*e[5mC]) [compound 771534] |  |  | % inhibition of SMAD7 mRNA expression [1]: 0%
8 | 771840 (antisense eA*eG*eA*eT*eG*d[5mC]*dT*dT*d[5mC]*dT*dA*dG*dG*dT*dG*eA*eA*e[5mC]*e[5mC]*eA) [compound 771840] |  | 16% | % Inhibition of SMAD7 mRNA [4]: 30%
9 | 771741 (antisense eG*eG*eT*e[5mC]*eT*d[5mC]*dA*d[5mC]*d[5mC]*dT*dT*dA*dG*dG*d[5mC]*e[5mC]*eT*eG*eT*eG) [compound 771741] |  |  | % inhibition of SMAD7 mRNA expression [5]: 53%
10 | 771720 (antisense e[5mC]*eA*eG*eG*e[5mC]*dA*dG*dA*dG*d[5mC]*dT*dA*dT*dG*d[5mC]*eT*eT*e[5mC]*eA*eA) [compound 771720] |  | 20% | % Inhibition of SMAD7 mRNA [4]: 37%
11 | 771527 (antisense eG*eA*eG*eT*eT*dT*dG*d[5mC]*dA*dT*dG*dA*dA*dA*dA*eG*e[5mC]*eA*eA*eG) [compound 771527] |  |  | % inhibition of SMAD7 mRNA expression [1]: 0%
12 | 771839 (antisense e[5mC]*eA*e[5mC]*eA*eG*d[5mC]*dA*d[5mC]*d[5mC]*dG*dT*dT*dA*d[5mC]*dT*eG*eG*eA*e[5mC]*eA) [compound 771839] | 21% |  | 
13 | 771755 (antisense eA*eA*eA*e[5mC]*eA*dT*dT*dT*dG*dG*d[5mC]*dA*d[5mC]*d[5mC]*d[5mC]*eA*eA*e[5mC]*eA*e[5mC]) [compound 771755] | 35% |  | % inhibition of SMAD7 mRNA expression [3]: 44%
14 | 771818 (antisense eT*eG*eA*eA*eG*dA*d[5mC]*dA*dA*d[5mC]*dT*dG*d[5mC]*dT*dT*eT*eG*eA*eG*eA) [compound 771818] |  | 38% | 
15 | 771405 (antisense eA*eG*e[5mC]*eG*eA*dA*d[5mC]*dA*dT*dG*dA*d[5mC]*d[5mC]*dT*d[5mC]*e[5mC]*eG*e[5mC]*eA*e[5mC]) [compound 771405] | 25% |  | 
16 | 771759 (antisense eG*e[5mC]*eA*eT*eT*dA*d[5mC]*d[5mC]*dA*dG*dT*d[5mC]*d[5mC]*d[5mC]*d[5mC]*e[5mC]*eA*eT*eT*eA) [compound 771759] | 26% |  | 
17 | 771875 (antisense e[5mC]*e[5mC]*e[5mC]*e[5mC]*eG*dT*dG*d[5mC]*dA*d[5mC]*dT*d[5mC]*d[5mC]*d[5mC]*dA*eG*e[5mC]*e[5mC]*e[5mC]*eT) [compound 771875] | 51% |  | % inhibition of SMAD7 mRNA expression [3]: 42%
18 | 771374 (antisense eA*eG*e[5mC]*eA*eT*dG*dA*dA*dA*dG*dA*d[5mC]*dA*dA*dA*e[5mC]*e[5mC]*eA*e[5mC]*eA) [compound 771374] | 51% |  | % inhibition of SMAD7 mRNA expression [3]: 44%
19 | 771938 (antisense e[5mC]*e[5mC]*eT*eT*e[5mC]*d[5mC]*d[5mC]*dA*dA*dA*dT*dG*d[5mC]*d[5mC]*dT*eG*e[5mC]*e[5mC]*e[5mC]*e[5mC]) [compound 771938] |  | 29% | 
20 | 771613 (antisense e[5mC]*eT*eA*eA*eG*dT*d[5mC]*d[5mC]*dG*dG*dG*dA*dA*dA*dA*eA*e[5mC]*e[5mC]*eT*eG) [compound 771613] |  |  | % inhibition of SMAD7 mRNA expression [5]: 21%
21 | 771394 (antisense e[5mC]*eG*e[5mC]*eT*e[5mC]*d[5mC]*dG*dG*d[5mC]*dT*dG*d[5mC]*d[5mC]*d[5mC]*d[5mC]*eA*e[5mC]*e[5mC]*e[5mC]*e[5mC]) [compound 771394] | 10% |  | 

Row | Substance | % Inhibition [1] | % inhibition of SMAD7 mRNA expression [2] | further results
22 | 771498 (antisense e[5mC]*eT*eG*eT*eT*dG*dA*dA*dG*dA*dT*dG*dA*d[5mC]*d[5mC]*eT*e[5mC]*eT*eA*eG) [compound 771498] |  | 48% | 
23 | 771922 (antisense eA*eA*eA*eT*eT*d[5mC]*d[5mC]*dT*dT*dT*dA*dA*dG*dG*dT*eG*eT*eT*eG*e[5mC]) [compound 771922] |  | 29% | 
24 | 771553 (antisense eT*eG*eG*eT*eG*d[5mC]*dT*dT*dG*dG*dA*dT*dT*dT*d[5mC]*eT*eG*e[5mC]*eT*eT) [compound 771553] |  | 38% | 
25 | 771710 (antisense eG*eG*eG*e[5mC]*eT*dG*d[5mC]*d[5mC]*d[5mC]*dA*dT*dT*d[5mC]*d[5mC]*dT*eA*eG*e[5mC]*eG*e[5mC]) [compound 771710] | 40% |  | 
26 | 771369 (antisense e[5mC]*eA*eA*eA*eA*dG*dG*d[5mC]*dT*dG*dA*d[5mC]*dT*d[5mC]*dG*e[5mC]*eG*eG*e[5mC]*e[5mC]) [compound 771369] | 22% |  | 
27 | 771561 (antisense e[5mC]*eA*e[5mC]*eT*e[5mC]*d[5mC]*dT*dG*dA*d[5mC]*dA*dA*dG*dT*dG*eA*eA*eA*eT*eG) [compound 771561] |  | 30% | 
28 | 771950 (antisense eA*eT*eG*e[5mC]*eA*dA*dA*dG*dG*dG*dA*d[5mC]*d[5mC]*d[5mC]*dT*eT*eA*eA*eT*eA) [compound 771950] | 0% |  | 
29 | 771413 (eT*eG*eT*e[5mC]*e[5mC]*dG*dT*d[5mC]*dG*d[5mC]*d[5mC]*d[5mC]*d[5mC]*dT*dT*e[5mC]*eT*e[5mC]*e[5mC]*e[5mC]; antisense) [compound 771413] | 24% |  | 
30 | 771929 (antisense e[5mC]*eT*eT*eT*e[5mC]*d[5mC]*dA*dG*d[5mC]*dA*dA*dA*dA*d[5mC]*d[5mC]*eA*eT*eT*e[5mC]*eG) [compound 771929] |  | 0% | 
31 | 771440 (e[5mC]*eG*eG*e[5mC]*eT*dG*d[5mC]*dG*d[5mC]*dA*dG*dG*d[5mC]*dT*dG*e[5mC]*eG*e[5mC]*eG*e[5mC]; antisense) [compound 771440] | 48% |  | 
32 | 771367 (antisense e[5mC]*eT*eT*eG*eA*dT*dG*d[5mC]*dT*dG*dA*dT*dT*dA*dT*eT*eA*eA*eT*eG) [compound 771367] | 0% |  | 
33 | 771489 (antisense e[5mC]*eA*eA*eA*eG*d[5mC]*dT*dG*dA*dT*d[5mC]*dT*dG*d[5mC]*dA*e[5mC]*eG*eG*eT*eA) [compound 771489] |  | 27% | % Inhibition of SMAD7 mRNA [4]: 34%
34 | 771395 (antisense eG*e[5mC]*eG*e[5mC]*eT*d[5mC]*d[5mC]*dG*dG*d[5mC]*dT*dG*d[5mC]*d[5mC]*d[5mC]*e[5mC]*eA*e[5mC]*e[5mC]*e[5mC]) [compound 771395] |  | 0% | % Inhibition of SMAD7 mRNA [4]: 34%
35 | 771725 (antisense e[5mC]*eT*eT*eG*eA*dG*dG*dG*dA*dG*d[5mC]*dT*dG*dG*dT*eA*eG*eA*eG*eT) [compound 771725] |  |  | % inhibition of SMAD7 mRNA expression [5]: 8%
36 | 771819 (antisense eA*eA*eT*eA*eG*dT*dT*dT*dT*d[5mC]*dT*d[5mC]*dT*d[5mC]*dA*eA*eA*eT*eG*eT) [compound 771819] | 20% |  | % inhibition of SMAD7 mRNA expression [3]: 56%
37 | 771645 (antisense eG*eT*eT*eG*eT*dA*dG*dA*dA*dG*dA*dA*dA*dT*dG*eA*eA*eA*eG*eA) [compound 771645] |  |  | % inhibition of SMAD7 mRNA expression [5]: 38%
38 | 771528 (antisense eA*eA*eA*eG*eA*dG*dT*dT*dT*dG*d[5mC]*dA*dT*dG*dA*eA*eA*eA*eG*e[5mC]) [compound 771528] |  | 4% | % Inhibition of SMAD7 mRNA [4]: 12%
39 | 771729 (antisense eT*eG*e[5mC]*eT*e[5mC]*d[5mC]*dA*dG*d[5mC]*dT*d[5mC]*d[5mC]*dA*dG*dA*e[5mC]*e[5mC]*eT*eG*eG) [compound 771729] |  | 35% | 
40 | 771781 (antisense eA*eA*eA*eA*eA*dA*dA*dG*d[5mC]*d[5mC]*d[5mC]*dA*d[5mC]*d[5mC]*d[5mC]*eA*eT*e[5mC]*eG*eG) [compound 771781] |  |  | % inhibition of SMAD7 mRNA expression [5]: 10%
41 | 771355 (antisense e[5mC]*eA*eG*eT*eT*d[5mC]*dG*dG*d[5mC]*d[5mC]*dT*dT*d[5mC]*d[5mC]*dA*eT*e[5mC]*e[5mC]*eA*eA) [compound 771355] |  | 0% | % Inhibition of SMAD7 mRNA [4]: 13%
42 | 771650 (antisense eG*eA*eA*eG*eT*dA*dT*d[5mC]*dA*dT*dA*d[5mC]*dG*dA*dG*eT*eG*eT*eA*eT) [compound 771650] |  |  | % inhibition of SMAD7 mRNA expression [4]: 24%
